{"source": "patent US20100035926A1", "about": "“PYRAZOLE DERIVATIVES AS NON-STEROIDAL GLUCOCORTICOID RECEPTOR LIGANDS” (priority 2006, published 2010)", "key": {"glucocorticoid receptor": {"target": "T1, glucocorticoid receptor (Homo sapiens, UniProt P04150)", "T1 construct": "a partially purified full length glucocorticoid receptor", "T1 sequence (P04150 1-777)": "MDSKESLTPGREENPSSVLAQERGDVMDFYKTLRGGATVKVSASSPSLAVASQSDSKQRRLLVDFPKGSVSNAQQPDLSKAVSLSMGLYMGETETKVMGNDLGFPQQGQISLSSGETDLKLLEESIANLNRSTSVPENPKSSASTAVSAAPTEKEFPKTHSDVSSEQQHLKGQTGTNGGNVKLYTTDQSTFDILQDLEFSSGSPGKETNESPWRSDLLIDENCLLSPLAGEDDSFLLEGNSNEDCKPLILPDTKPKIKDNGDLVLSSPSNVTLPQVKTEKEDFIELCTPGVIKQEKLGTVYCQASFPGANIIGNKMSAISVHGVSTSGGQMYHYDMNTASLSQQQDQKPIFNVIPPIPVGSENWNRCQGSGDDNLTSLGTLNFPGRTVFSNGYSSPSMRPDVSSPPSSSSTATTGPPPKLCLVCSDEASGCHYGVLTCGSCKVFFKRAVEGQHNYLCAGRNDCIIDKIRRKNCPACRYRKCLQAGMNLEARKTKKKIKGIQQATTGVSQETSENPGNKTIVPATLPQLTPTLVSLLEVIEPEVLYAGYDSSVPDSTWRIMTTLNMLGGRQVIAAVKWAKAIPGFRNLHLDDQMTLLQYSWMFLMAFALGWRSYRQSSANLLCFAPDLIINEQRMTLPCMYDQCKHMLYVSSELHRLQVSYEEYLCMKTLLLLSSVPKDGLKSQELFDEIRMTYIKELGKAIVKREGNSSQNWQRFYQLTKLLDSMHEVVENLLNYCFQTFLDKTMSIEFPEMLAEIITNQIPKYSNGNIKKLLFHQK", "assay": "Glucocorticoid Receptor Binding Assay (fluorescence polarisation, displacement of Alexa 555 labelled dexamethasone derivative)", "settings": "at least once in this assay; read-out: glucocorticoid binding pIC50 (converted)", "summary_of_the_method": "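Partially purified full-length GR incubated with test compound and fluorescent dexamethasone plus GR-stabilising buffer components, 2 hr at room temperature in the dark. Binding scored as displacement of tracer, read as decrease in fluorescence polarisation.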"}, "GR [1]": {"target": "T2, GR (Homo sapiens, UniProt P04150)", "T2 construct": "endogenous in cells; host or cells: A549 (human lung carcinoma, ECACC No. 86012804), stably transfected with reporter plasmids only", "T2 sequence (P04150 1-777)": "T1 sequence (P04150 1-777)", "assay": "GR Functional Assay - NFκB Assay (A549 SPAP cells, TNFα stimulated)", "assay_type": "cell-based", "summary_of_the_method": "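Stably transfected A549 SPAP cells at 0.16×10^6/ml in DMEM with 10% FCS were added to compound and stimulated with TNFα to drive NFκB-dependent SPAP expression. After 1 hr equilibration at room temperature, SPAP was read colorimetrically with pNPP in diethanolamine buffer, pH 9.8.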"}, "[2]": {"assay": "Assay for Brain Penetrance", "assay_type": "in vivo", "settings": "brain and plasma, rat, single intravenous dose 1 mg/kg, read-out: brain to plasma ratio", "method": "Each rat received a single intravenous dose at a level of 1 mg/kg. The dose was formulated in 10% DMSO/50% PEG200/40% sterile water. Terminal blood samples were taken at 5 or 15 mins after dosing, by cardiac puncture following anaesthesia with isofluorane. The brains were removed at the same time point.\nThe compounds were extracted from 20 μL plasma by protein precipitation using 120 μL acetonitrile containing an analogue compound as an internal standard. The filtered extracts were collected into a 96 well plate and were diluted with an equal volume of 10% acetonitrile containing 0.1% formic acid in water (v/v). The plate was then mixed on a plate shaker for at least 5 mins before analysis by LC-MS/MS against a calibration line prepared in control plasma.\nEach brain was weighed, then homogenised in 3 ml acetonitrile:water (10:90v/v). The compounds were extracted from 200 μL of the resulting homogenate by protein precipitation using 600 μL acetonitrile containing an analogue compound as an internal standard. The extracts were centrifuged and 150 μl of each was filtered and transferred to a 96 well plate. The aliquot was diluted with 10% acetonitrile containing 0.1% formic acid in water (v/v). The plate was mixed on a plate shaker for at least 5 mins before analysis by LC-MS/MS against a calibration line prepared in control brain homogenate."}, "GR [3]": {"target": "T2, GR", "assay": "GR Agonist Assay - MMTV Assay (A549 MMTV cells, renilla luciferase reporter)", "assay_type": "cell-based", "settings": "6 h, agonists, read-out: average maximum asymptote in the MMTV agonist assay", "summary_of_the_method": "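Stably transfected A549 MMTV cells carry a GR-driven luciferase reporter. Cells at 0.1×10^6/ml in DMEM with 10% FCS and 25 mM HEPES were added to wells containing compound. After detection reagent, plates were held about 15 mins at room temperature and luminescence was read.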"}, "Progesterone Receptor": {"target": "T3, Progesterone Receptor (Homo sapiens, UniProt P06401)", "T3 construct": "expressed in transfected cells; host or cells: CV-1 cells transduced with PRb-BacMam and MMTV-BacMam", "T3 sequence (P06401 1-933)": "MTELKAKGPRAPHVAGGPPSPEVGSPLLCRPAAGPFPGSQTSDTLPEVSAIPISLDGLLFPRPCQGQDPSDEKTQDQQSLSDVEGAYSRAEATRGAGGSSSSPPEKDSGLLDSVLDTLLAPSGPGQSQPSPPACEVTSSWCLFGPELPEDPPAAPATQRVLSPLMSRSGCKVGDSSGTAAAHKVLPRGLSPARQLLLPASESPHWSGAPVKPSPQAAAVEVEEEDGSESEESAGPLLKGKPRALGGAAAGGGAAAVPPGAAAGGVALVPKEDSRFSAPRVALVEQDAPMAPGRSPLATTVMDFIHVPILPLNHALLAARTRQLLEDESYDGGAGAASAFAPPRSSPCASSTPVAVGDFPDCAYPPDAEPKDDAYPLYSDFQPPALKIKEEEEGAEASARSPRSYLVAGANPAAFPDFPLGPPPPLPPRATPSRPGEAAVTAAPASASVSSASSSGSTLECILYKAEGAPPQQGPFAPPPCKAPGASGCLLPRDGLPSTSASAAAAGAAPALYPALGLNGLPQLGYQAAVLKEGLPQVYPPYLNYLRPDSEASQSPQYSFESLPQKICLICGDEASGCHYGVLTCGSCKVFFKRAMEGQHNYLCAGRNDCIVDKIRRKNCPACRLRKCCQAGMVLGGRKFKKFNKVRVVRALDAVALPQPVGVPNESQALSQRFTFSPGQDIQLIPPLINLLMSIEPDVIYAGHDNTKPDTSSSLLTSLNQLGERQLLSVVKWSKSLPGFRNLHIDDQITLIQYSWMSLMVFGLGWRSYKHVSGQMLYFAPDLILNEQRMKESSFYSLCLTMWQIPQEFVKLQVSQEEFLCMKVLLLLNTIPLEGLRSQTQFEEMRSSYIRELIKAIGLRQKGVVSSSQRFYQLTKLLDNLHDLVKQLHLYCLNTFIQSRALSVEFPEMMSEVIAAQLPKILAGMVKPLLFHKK", "assay": "Assay for Progesterone Receptor Agonist Activity (CV-1 cells, PRb-BacMam, MMTV-BacMam)", "assay_type": "cell-based", "settings": "at least once in this assay, read-out: progesterone receptor agonist pEC50 (converted)", "method": "A T225 flask of CV-1 cells at a density of 80% confluency was washed with PBS, detached from the flask using 0.25% trypsin and counted using a Sysmex KX-21N. Cells were diluted in DMEM containing 10% Hyclone, 2 mM […] and 1% Pen/Strep at 140 cells/μl and transduced with 10% PRb-BacMam and 10% MMTV-BacMam. […] of suspension cells were dispensed to each well of white Nunc 384-well plates, containing compounds at the required concentration. After 24 hr 10 μl of Steadylite were added to each well of the plates. Plates were incubated in the dark for 10 min before reading them on a Viewlux reader. Dose response curves were constructed from which pEC50 values were estimated."}}, "note": "Read-outs that look alike come from different tables or passages of the source.", "data": [{"smiles": "CCN(CC(O)(CNC(=O)c1cnn(-c2ccc(F)c(F)c2)c1N)C(F)(F)F)C(=O)c1ccccc1", "note": "(racemic) [Example 24 (racemic), 5-amino-1-(3,4-difluorophenyl)-N-(2-{[ethyl(phenylcarbonyl)amino]methyl}-3,3,3-trifluoro-2-hydroxypropyl)-1H-pyrazole-4-carboxamide]", "values": [{"measurement": "IC50", "setting": "glucocorticoid receptor", "value": "< 1000", "unit": "nM"}, {"measurement": "Emax", "setting": "GR [1]; agonists, A549 SPAP cells, read-out: average maximum asymptote in the NFkB assay", "value": "≥ 40", "unit": "%"}, {"measurement": "IC50", "setting": "GR [1]; at least once in the NFkB assay, A549 SPAP cells, read-out: pIC50 in the NFkB assay (converted)", "value": "< 1000", "unit": "nM"}, {"measurement": "IC50", "setting": "GR [1]; at least once, examples listed as agonists in NFkB and MMTV assays, read-out: potency pIC50 in the NFKB assay (converted)", "value": "< 316", "unit": "nM"}, {"measurement": "Kp at 5 min", "setting": "[2]", "value": "≥ 0.1"}, {"measurement": "Emax", "setting": "GR [3]", "value": "≥ 40", "unit": "%"}]}, {"smiles": "CCN(CC(O)(CNC(=O)c1cnn(-c2ccc(F)cc2)c1N)C(F)(F)F)C(=O)c1ncccc1Cl", "note": "(single isomer, unassigned) [Example 3 Enantiomer 1, N-[2-[({[5-Amino-1-(4-fluorophenyl)-1H-pyrazol-4-yl]carbonyl]amino)methyl]-3,3,3-trifluoro-2-hydroxypropyl}-3-chloro-N-ethyl-2-Pyridinecarboxamide]", "values": [{"measurement": "Kp at 5 min", "setting": "[2]", "value": "≥ 0.1"}, {"measurement": "EC50", "setting": "Progesterone Receptor", "value": "> 1000", "unit": "nM"}]}]}
